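Assay format: 96-well plates, 48-hour exposure. Abbreviation: GI50, concentration required for 50% inhibition of growth. TGI: concentration producing complete growth inhibition.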
Experiments:
Experiment in all cases: NCI-60 cell line screen, 48 h
[1] = tested on: MALME-3M melanoma
[2] = tested on: IGROV1 ovarian
[3] = tested on: LOX IMVI melanoma
[4] = tested on: K-562 leukemia
[5] = tested on: RPMI-8226 leukemia
[6] = tested on: SF-268 CNS
[7] = tested on: NCI/ADR-RES ovarian
[8] = tested on: UO-31 renal
[9] = tested on: BT-549 breast
[10] = tested on: OVCAR-4 ovarian
[11] = tested on: OVCAR-8 ovarian
[12] = tested on: SK-MEL-5 melanoma
[13] = tested on: HS 578T breast
[14] = tested on: CCRF-CEM leukemia
[15] = tested on: SK-OV-3 ovarian
[16] = tested on: HCT-116 colon
[17] = tested on: KM12 colon
[18] = tested on: MDA-MB-435
[19] = tested on: HCC-2998 colon
[20] = tested on: SF-295 CNS
[21] = tested on: SNB-19 CNS
[22] = tested on: HCT-15 colon
[23] = tested on: A549 NSCLC
[24] = tested on: U251 CNS
[25] = tested on: HT29 colon
[26] = tested on: A498 renal
[27] = tested on: CAKI-1 renal
[28] = tested on: PC-3 prostate
[29] = tested on: DU-145 prostate
[30] = tested on: OVCAR-3 ovarian
[31] = tested on: MCF7 breast
[32] = tested on: T-47D breast
[33] = tested on: UACC-257 melanoma
[34] = tested on: SK-MEL-2 melanoma
[35] = tested on: MDA-MB-231 breast
[36] = tested on: NCI-H23 lung
[37] = tested on: HOP-92 NSCLC
[38] = tested on: UACC-62 melanoma
[39] = tested on: ACHN renal
[40] = tested on: RXF 393 renal
[41] = tested on: NCI-H522 lung
[42] = tested on: SNB-75 CNS
[43] = tested on: NCI-H460 lung
[44] = tested on: 786-0 renal
[45] = tested on: OVCAR-5 ovarian
[46] = tested on: M14 melanoma
[47] = tested on: TK-10 renal
[48] = tested on: HOP-62 NSCLC
[49] = tested on: MOLT-4 leukemia
[50] = tested on: SF-539 CNS
[51] = tested on: COLO 205 colon
[52] = tested on: SN12C renal
[53] = tested on: SW-620 colon
[54] = tested on: SR leukemia
[55] = tested on: HL-60(TB) leukemia
[56] = tested on: NCI-H226 lung
[57] = tested on: SK-MEL-28 melanoma

SMILES: COc1ccc(OC)c(N(CCN2C(=O)c3ccccc3C2=O)C(=O)CCl)c1
- GI50 [1]: 0.706 µM
- TGI [1]: 3.16 µM
- GI50 [2]: 0.121 µM
- TGI [2]: 0.299 µM
- GI50 [3]: 0.191 µM
- TGI [3]: 0.406 µM
- GI50 [4]: 21.3 µM
- TGI [4]: > 70.4 µM
- GI50 [5]: 2.06 µM
- TGI [5]: 9.34 µM
- GI50 [6]: 0.931 µM
- TGI [6]: 3.2 µM
- GI50 [7]: 3.31 µM
- TGI [7]: > 19.6 µM
- GI50 [8]: 0.0667 µM
- TGI [8]: 0.154 µM
- GI50 [9]: 17.9 µM
- TGI [9]: 46.7 µM
- GI50 [10]: 0.23 µM
- TGI [10]: 0.554 µM
- GI50 [11]: 7.5 µM
- TGI [11]: 46.3 µM
- GI50 [12]: 16 µM
- TGI [12]: 35.3 µM
- GI50 [13]: 13.7 µM
- TGI [13]: 68.9 µM
- GI50 [14]: 0.229 µM
- TGI [14]: 0.542 µM
- GI50 [15]: 0.688 µM
- TGI [15]: 2.05 µM
- GI50 [16]: 17.7 µM
- TGI [16]: 59.5 µM
- GI50 [17]: 0.617 µM
- TGI [17]: 5.17 µM
- GI50 [18]: 15.6 µM
- TGI [18]: 66.7 µM
- GI50 [19]: 20.4 µM
- TGI [19]: 56 µM
- GI50 [20]: 1.09 µM
- TGI [20]: 2.44 µM
- GI50 [21]: 30.4 µM
- TGI [21]: > 100 µM
- GI50 [22]: 11.6 µM
- TGI [22]: > 54.6 µM
- GI50 [23]: 9.35 µM
- TGI [23]: 44.7 µM
- GI50 [24]: 3.74 µM
- TGI [24]: 17.8 µM
- GI50 [25]: 0.497 µM
- TGI [25]: 2.15 µM
- GI50 [26]: 6.81 µM
- TGI [26]: 25.4 µM
- GI50 [27]: 0.482 µM
- TGI [27]: 2 µM
- GI50 [28]: 14 µM
- TGI [28]: 67 µM
- GI50 [29]: 6.09 µM
- TGI [29]: 37.7 µM
- GI50 [30]: 0.641 µM
- TGI [30]: 1.62 µM
- GI50 [31]: 14.2 µM
- TGI [31]: 43 µM
- GI50 [32]: 18.9 µM
- TGI [32]: 54.4 µM
- GI50 [33]: 20.7 µM
- TGI [33]: 88 µM
- GI50 [34]: 12.4 µM
- TGI [34]: 35.1 µM
- GI50 [35]: 1.24 µM
- TGI [35]: 7.51 µM
- GI50 [36]: 2.26 µM
- TGI [36]: 12.3 µM
- GI50 [37]: 0.181 µM
- TGI [37]: 0.48 µM
- GI50 [38]: 6.24 µM
- TGI [38]: 21.6 µM
- GI50 [39]: 0.831 µM
- TGI [39]: 4.85 µM
- GI50 [40]: 0.615 µM
- TGI [40]: 12.6 µM
- GI50 [41]: 0.0631 µM
- TGI [41]: 0.157 µM
- GI50 [42]: 0.288 µM
- TGI [42]: 1.22 µM
- GI50 [43]: 13.5 µM
- TGI [43]: 48.5 µM
- GI50 [44]: 0.901 µM
- TGI [44]: 3.1 µM
- GI50 [45]: 1.42 µM
- TGI [45]: 15.8 µM
- GI50 [46]: 24.6 µM
- TGI [46]: > 100 µM
- GI50 [47]: 16.9 µM
- TGI [47]: 39.9 µM
- GI50 [48]: 0.379 µM
- TGI [48]: 1.97 µM
- GI50 [49]: 10.3 µM
- TGI [49]: 37.7 µM
- GI50 [50]: 1.13 µM
- TGI [50]: 2.68 µM
- GI50 [51]: 13.5 µM
- TGI [51]: 29.3 µM
- GI50 [52]: 22.7 µM
- TGI [52]: > 100 µM
- GI50 [53]: 15.3 µM
- TGI [53]: > 58.5 µM
- GI50 [54]: 0.119 µM
- GI50 [55]: 0.202 µM
- TGI [55]: 0.411 µM
- GI50 [56]: 30.9 µM
- TGI [56]: > 89.2 µM
- GI50 [57]: 23.4 µM
- TGI [57]: 91.2 µM

From PubChem BioAssay (NCI)
